Test results reported in patent publication US20210274788A1, “PESTICIDALLY ACTIVE ISOXAZOLINE D[…] AMIDE GROUP AND AN AZETIDINE SULFONE GROUP” (SYNGENTA CROP PROTECTION AG, priority 2018, published 2021).

Legend:
Type in all cases: in vivo
[1] = system: Euschistus heros (Neotropical Brown Stink Bug); experiment: Euschistus heros (neotropical brown stink bug), sprayed soybean leaves, N2 nymphs; conditions: 120 h, application rate 200 ppm, 5 days after infestation, read-out: effect in at least one of the two categories (mortality or growth inhibition)
Procedure: Euschistus heros (Neotropical Brown Stink Bug)
Soybean leaves on agar in 24-well microtiter plates were sprayed with aqueous test solutions prepared from 10,000 ppm DMSO stock solutions. After drying the leaves were infested with N2 nymphs. The samples were assessed for mortality and growth inhibition in comparison to untreated samples 5 days after infestation.

[2] = system: Plutella xylostella (Diamond Back Moth); experiment: Plutella xylostella (diamond back moth), treated artificial diet, eggs; conditions: 192 h, application rate 200 ppm, 8 days after infestation, read-out: effect in at least one of the two categories (mortality or growth inhibition)
Procedure: Plutella xylostella (Diamond Back Moth)
24-well microtiter plates with artificial diet were treated with aqueous test solutions prepared from 10,000 ppm DMSO stock solutions by pipetting. After drying, Plutella eggs were pipetted through a plastic stencil onto a gel blotting paper and the plate was closed with it. The samples were assessed for mortality and growth inhibition in comparison to untreated samples 8 days after infestation.

[3] = system: Spodoptera littoralis (Egyptian Cotton Leaf Worm); experiment: Spodoptera littoralis (Egyptian cotton leaf worm), cotton leaf discs, L1 larvae; conditions: foliar, 72 h, application rate 200 ppm, 3 days after infestation
Procedure: Spodoptera littoralis (Egyptian Cotton Leaf Worm)
Cotton leaf discs were placed onto agar in 24-well microtiter plates and sprayed with aqueous test solutions prepared from 10,000 ppm DMSO stock solutions. After drying the leaf discs were infested with five L1 larvae. The samples were assessed for mortality, anti-feeding effect, and growth inhibition in comparison to untreated samples 3 days after infestation. Control of Spodoptera littoralis by a test sample is given when at least one of the categories mortality, anti-feedant effect, and growth inhibition is higher than the untreated sample.

CCOCN(C(=O)c1ccc(C2=NO[C@@](c3cc(Cl)c(F)c(Cl)c3)(C(F)(F)F)C2)cc1C)C1CN(S(=O)(=O)C(F)F)C1 [Compound A3, 4-[(5S)-5-(3,5-dichloro-4-fluoro-phenyl)-5-(trifluoromethyl)-4H-isoxazol-3-yl]-N-[1-(difluoromethylsulfonyl)azetidin-3-yl]-N-(ethoxymethyl)-2-methyl-benzamide]
≥ 80%: percent effect (mortality or growth inhibition) at 200 ppm [1] | percent effect (mortality or growth inhibition) at 200 ppm [2] | percent control (mortality, anti-feedant effect or growth inhibition) at 200 ppm [3]
